Measurements as given in the supplement of paper PMC10307832.

What follows are cell lines tested with C[C@]1(c2nc3c(C(N)=O)cccc3[nH]2)CCCN1 [Veliparib] + CC1(C)CCC(c2ccc(Cl)cc2)=C(CN2CCN(c3ccc(C(=O)NS(=O)(=O)c4ccc(N[C@H](CCN5CCOCC5)CSc5ccccc5)c(S(=O)(=O)C(F)(F)F)c4)cc3)CC2)C1 [Navitoclax] (partner 0.5 µM) (assay: relative viability (nuclei count vs DMSO), 5 days (fraction); higher = more cells survive). Conditions: first compound 0.02 µM.
In short: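 Relative viability was taken as the ratio of nuclei in treated wells to nuclei in vehicle wells. Lung cancer cell lines in 1536-well plates received compounds by pin tool one day after seeding, either one drug alone or a fixed anchor-drug dose plus five library-drug doses (not always all listed) in √10 steps. Nuclei were counted on 4× images after 5 days of treatment, and values are medians of duplicate plates.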
Cell Line PC-14 has a relative viability of 0.991. LXF-289 showed a relative viability of 0.932. In the case of NCI-H1651, the relative viability is reported as 1.04. COR-L23 was tested, and the relative viability was 1.15. HCC-827 was tested, and the relative viability was 1.03. RERF-LC-KJ showed a relative viability of 1.05. With NCI-H3122 the relative viability was 0.982. For BEN, the relative viability was 0.0726. UMC-11 showed a relative viability of 0.345. LCLC-97TM1 showed a relative viability of 0.425. For NCI-H2085, the relative viability was 1.13. Cell Line A-427 has a relative viability of 1.05. In the case of NCI-H838, the relative viability is reported as 1.2. With NCI-H1793 the relative viability was 0.435. Work on 201T yielded a relative viability of 1.21. Work on NCI-H2228 yielded a relative viability of 1.13. Cell Line LOU-NH91 has a relative viability of 0.539. NCI-H1666 was tested, and the relative viability was 1.03. Work on NCI-H1993 yielded a relative viability of 0.939. With NCI-H647 the relative viability was 1.13. Work on NCI-H2126 yielded a relative viability of 0.928. Work on NCI-H1755 yielded a relative viability of 1.02. Work on PC-3 [JPC-3] yielded a relative viability of 0.742. NCI-H2087 was tested, and the relative viability was 0.883. NCI-H441 was tested, and the relative viability was 0.701. Work on HOP-62 yielded a relative viability of 1.05. NCI-H2170 was tested, and the relative viability was 0.544. Work on NCI-H2347 yielded a relative viability of 0.794. In the case of HARA, the relative viability is reported as 1.17.

Same assay, conditions: first compound 0.06325 µM
Cell Line PC-14 has a relative viability of 1.05. In the case of LXF-289, the relative viability is reported as 0.948. LC-2-ad showed a relative viability of 0.446. With NCI-H1651 the relative viability was 1.05. Cell Line COR-L23 has a relative viability of 0.957. HCC-827 gave a relative viability of 0.937. Cell Line NCI-H3122 has a relative viability of 0.998. For BEN, the relative viability was 0.0807. In the case of UMC-11, the relative viability is reported as 0.312. LCLC-97TM1 showed a relative viability of 0.32. Work on NCI-H2085 yielded a relative viability of 0.984. With A-427 the relative viability was 0.795. NCI-H838 was tested, and the relative viability was 1.1. NCI-H1793 was tested, and the relative viability was 0.602. Cell Line 201T has a relative viability of 1.21. With NCI-H2228 the relative viability was 0.953. Work on LOU-NH91 yielded a relative viability of 0.643. With NCI-H1666 the relative viability was 0.696. ChaGo-K-1 was tested, and the relative viability was 0.833. Work on NCI-H1993 yielded a relative viability of 0.898. With NCI-H647 the relative viability was 1.14. Cell Line NCI-H2126 has a relative viability of 0.803. Cell Line NCI-H1755 has a relative viability of 0.946. PC-3 [JPC-3] was tested, and the relative viability was 0.77. NCI-H2087 was tested, and the relative viability was 0.821. With NCI-H441 the relative viability was 0.478. In the case of HOP-62, the relative viability is reported as 1. With NCI-H2170 the relative viability was 0.531. Cell Line NCI-H2347 has a relative viability of 0.775. HARA gave a relative viability of 1.09. NCI-H1355 gave a relative viability of 0.872.

Same assay, conditions: first compound 0.2 µM
PC-14 gave a relative viability of 0.937. LXF-289 was tested, and the relative viability was 0.931. Work on LC-2-ad yielded a relative viability of 0.405. NCI-H1651 showed a relative viability of 1.1. In the case of COR-L23, the relative viability is reported as 0.899. For HCC-827, the relative viability was 0.971. For RERF-LC-KJ, the relative viability was 1. NCI-H3122 showed a relative viability of 0.998. In the case of BEN, the relative viability is reported as 0.0698. For UMC-11, the relative viability was 0.369. LCLC-97TM1 showed a relative viability of 0.387. For NCI-H2085, the relative viability was 1.15. A-427 showed a relative viability of 0.93. NCI-H838 showed a relative viability of 1.12. Cell Line NCI-H1793 has a relative viability of 0.424. In the case of 201T, the relative viability is reported as 1.17. NCI-H2228 showed a relative viability of 1.01. In the case of LOU-NH91, the relative viability is reported as 0.672. NCI-H1666 showed a relative viability of 0.932. Cell Line ChaGo-K-1 has a relative viability of 1.08. NCI-H1993 showed a relative viability of 1.07. Cell Line NCI-H647 has a relative viability of 1.14. Work on NCI-H2126 yielded a relative viability of 0.861. NCI-H1755 was tested, and the relative viability was 0.939. Cell Line PC-3 [JPC-3] has a relative viability of 0.801. NCI-H2087 was tested, and the relative viability was 0.849. NCI-H441 showed a relative viability of 0.667. Work on HOP-62 yielded a relative viability of 1.06. NCI-H2170 showed a relative viability of 0.597. Work on NCI-H2347 yielded a relative viability of 0.724. HARA showed a relative viability of 1.1. NCI-H1355 was tested, and the relative viability was 0.9.

Same assay, conditions: first compound 0.6325 µM
In the case of PC-14, the relative viability is reported as 0.895. In the case of LXF-289, the relative viability is reported as 0.888. With LC-2-ad the relative viability was 0.312. Work on NCI-H1651 yielded a relative viability of 1.01. COR-L23 gave a relative viability of 0.86. Cell Line HCC-827 has a relative viability of 0.944. RERF-LC-KJ showed a relative viability of 0.852. NCI-H3122 was tested, and the relative viability was 1. BEN was tested, and the relative viability was 0.0678. Cell Line UMC-11 has a relative viability of 0.324. Work on NCI-H2085 yielded a relative viability of 0.932. With A-427 the relative viability was 0.938. NCI-H838 was tested, and the relative viability was 1.11. NCI-H1793 was tested, and the relative viability was 0.376. Work on 201T yielded a relative viability of 1.19. NCI-H2228 showed a relative viability of 0.688. LOU-NH91 was tested, and the relative viability was 0.689. Work on NCI-H1666 yielded a relative viability of 0.8. ChaGo-K-1 showed a relative viability of 1.06. NCI-H1993 showed a relative viability of 0.902. Work on NCI-H647 yielded a relative viability of 1.03. For NCI-H2126, the relative viability was 0.749. Cell Line NCI-H1755 has a relative viability of 0.925. PC-3 [JPC-3] showed a relative viability of 0.749. With NCI-H2087 the relative viability was 0.863. For NCI-H441, the relative viability was 0.501. Work on HOP-62 yielded a relative viability of 0.937. Cell Line NCI-H2170 has a relative viability of 0.618. NCI-H2347 showed a relative viability of 0.695. Cell Line HARA has a relative viability of 1.08. With NCI-H1355 the relative viability was 0.904.

Same assay, conditions: first compound 2 µM
Work on PC-14 yielded a relative viability of 0.898. LXF-289 showed a relative viability of 0.968. With LC-2-ad the relative viability was 0.497. NCI-H1651 showed a relative viability of 0.916. COR-L23 gave a relative viability of 0.999. HCC-827 was tested, and the relative viability was 1.02. For RERF-LC-KJ, the relative viability was 0.754. Cell Line NCI-H3122 has a relative viability of 1.01. Work on BEN yielded a relative viability of 0.0746. UMC-11 gave a relative viability of 0.331. In the case of LCLC-97TM1, the relative viability is reported as 0.476. With NCI-H2085 the relative viability was 1.11. Work on A-427 yielded a relative viability of 0.893. Work on NCI-H838 yielded a relative viability of 1.2. With NCI-H1793 the relative viability was 0.396. In the case of 201T, the relative viability is reported as 1.15. With NCI-H2228 the relative viability was 1.05. With LOU-NH91 the relative viability was 0.703. NCI-H1666 gave a relative viability of 1.03. Cell Line ChaGo-K-1 has a relative viability of 0.85. In the case of NCI-H1993, the relative viability is reported as 0.959. NCI-H647 showed a relative viability of 1.1. In the case of NCI-H2126, the relative viability is reported as 0.817. Work on NCI-H1755 yielded a relative viability of 0.967. PC-3 [JPC-3] was tested, and the relative viability was 0.734. NCI-H2087 was tested, and the relative viability was 0.952. With NCI-H441 the relative viability was 0.387. HOP-62 was tested, and the relative viability was 1.03. Cell Line NCI-H2170 has a relative viability of 0.606. Cell Line NCI-H2347 has a relative viability of 0.729. HARA was tested, and the relative viability was 1.15. Cell Line NCI-H1355 has a relative viability of 0.971.
